Structures can show the parent of a compound that is named as a salt.

human MCH-1 receptor, sequence (Q99705 whole entry): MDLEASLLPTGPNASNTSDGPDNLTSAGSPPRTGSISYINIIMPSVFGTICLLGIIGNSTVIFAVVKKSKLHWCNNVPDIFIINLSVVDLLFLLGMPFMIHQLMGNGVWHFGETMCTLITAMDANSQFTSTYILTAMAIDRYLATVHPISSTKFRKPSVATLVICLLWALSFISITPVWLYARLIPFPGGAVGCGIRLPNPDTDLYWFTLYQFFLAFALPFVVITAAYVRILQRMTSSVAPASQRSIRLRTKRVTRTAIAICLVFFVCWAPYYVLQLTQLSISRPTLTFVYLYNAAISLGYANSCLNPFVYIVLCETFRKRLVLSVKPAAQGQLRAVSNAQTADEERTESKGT

This assay addresses human MCH-1 receptor (Homo sapiens (Human), UniProt Q99705). Description: Binding Assay for Human Melanin-Concentrating Hormone (MCH-1) Receptor. Particulars: radioligand displacement, membranes from CHO-K1 cells expressing human MCH-1 receptor; Ki from IC50 by Cheng Prusoff equation; read-out: MCH1 Ki. On the procedure:
Binding Assay for Human Melanin-Concentrating Hormone (MCH-1) Receptor
Evaluation of the affinity of compounds for the human MCH-1 receptor was accomplished using 4-(3,4,5-tritritiumbenzyloxy)-1-(1-(2-(pyrrolidin-1-yl)ethyl)-1H-indazol-5-yl)pyridin-2(1H)-one and membranes prepared from stable CHO-K1 cells expressing the human MCH-1 receptor obtained from Euroscreen (Batch 1138). Cell membrane homogenates (8.92 μg protein) were incubated for 60 min at 25° C. with 1.4 nM of the [^3H]-labeled compound in the absence or presence of the test compound in 50 mM Tris-HCl buffer, pH 7.4. Nonspecific binding was determined in the presence of 50 μM 1-(5-(4-cyanophenyl)bicyclo[3.1.0]hexan-2-yl)-3-(4-fluoro-3-(trifluoromethyl)phenyl)-1-(3-(4-methylpiperazin-1-yl)propyl)urea. Following incubation, the samples were filtered rapidly under vacuum through Skatron 11731 filters, pre-soaked in 0.5% polyethylenimine, and washed with ice-cold 50 mM Tris-HCl buffer, pH 7.4, (wash setting 9,9,0) using a Skatron cell harvester. The filters were counted for radioactivity in a liquid scintillation counter (Tri-Carb 2100TR, Packard) using a scintillation cocktail (Ultima Gold MV, Perkin Elmer).
The results are expressed as a percent inhibition of the control radioligand specific binding. The IC50 value (concentration causing a half-maximal inhibition of control specific binding) and Hill coefficient (nH) were determined by non-linear regression analysis of the competition curve using Hill equation curve fitting. The inhibition constant (Ki) was calculated from the Cheng Prusoff equation: (Ki=IC50/(1+(L/KD)), where L=concentration of radioligand in the assay, and KD=affinity of the radioligand for the receptor.
Consider `Cn1c2c(c3ccc(-n4ncc(OCc5ccc(F)cn5)cc4=O)cc31)CNCCC2` [Example 39, 5-((5-Fluoropyridin-2-yl)methoxy)-2-(6-methyl-1,2,3,4,5,6-hexahydroazepino[4,3-b]indol-8-yl)pyridazin-3(2H)-one hydrochloride], for which the Ki was 16.8 nM.
With `Cl.Cn1c2c(c3ccc(-n4ccc(OCc5ccc(F)cn5)cc4=O)cc31)CCNCC2` [Example 40, 4-((5-Fluoropyridin-2-yl)methoxy-1-(6-methyl-1,2,3,4,5,6-hexahydroazepino[4,5-b]indol-8-yl)pyridin-2(1H)-one hydrochloride], the Ki was 7.2 nM.
For `Cl.Cn1c2c(c3ccc(-n4ccc(-c5ccc(C(F)(F)F)cc5)cc4=O)cc31)CCNCC2` [Example 41, 1-(6-Methyl-1,2,3,4,5,6-hexahydroazepino[4,5-b]indol-8-yl)-4(4-trifluoromethyl)phenyl)pyridin-2(1H)-one hydrochloride] the value was 10 nM; for `CC(C)N1CCc2[nH]c3cc(-n4ccc(OCc5ccc(F)cn5)cc4=O)ccc3c2CC1` [Example 42, 4-((5-Fluoropyridin-2-yl)methoxy)-1-(3-isopropyl-1,2,3,4,5,6-hexahydroazepino[4,5-b]indol-8-yl)-pyridin-2(1H)-one hydrochloride], 17.8 nM; for `Cn1c2c(c3ccc(-n4ccc(OCc5ccccc5)cc4=O)cc31)CCNCC2` [Example 43, 4-(Benzyloxy)-1-(6-methyl-1,2,3,4,5,6-hexahydroazepino[4,5-b]indol-8-yl)pyridin-2(1H)-one hydrochloride], 8.9 nM.
Regarding `CN1CCc2c(n(C)c3cc(-n4ccc(OCc5ccccc5)cc4=O)ccc23)CC1` [Example 44, 4-(benzyloxy)-1-(3,6-dimethyl-1,2,3,4,5,6-hexahydroazepino[4,5-b]indol-8-yl)pyridin-2(1H)-one hydrochloride], the Ki worked out at 11.6 nM.
Take `Cc1ccc(COc2ccn(-c3ccc4c5c(n(C)c4c3)CCNCC5)c(=O)c2)cn1` [Example 45, 1-(6-Methyl-1,2,3,4,5,6-hexahydroazepino[4,5-b]indol-8-yl)-4-((6-methylpyridin-3-yl)methoxy)pyridin-2(1H)-one dihydrochloride]: the Ki worked out at 26 nM.
To `CC(=O)N1CCc2c(n(C)c3cc(-n4ccc(-c5ccc(C(F)(F)F)nc5)cc4=O)ccc23)CC1` [Example 46, 1-(3-Acetyl-6-methyl-1,2,3,4,5,6-hexahydroazepino[4,5-b]indol-8-yl)-4-(6-(trifluoromethyl)pyridin-3-yl)pyridin-2(1H)-one] belongs 47 nM; to `Cn1c2c(c3ccc(-n4ccc(-c5ccc(C(F)(F)F)cc5)nc4=O)cc31)CCNCC2` [Example 49, 1-(6-Methyl-1,2,3,4,5,6-hexahydroazepino[4,5-b]indol-8-yl)-4-(4-(trifluoromethyl)phenyl)pyrimidin-2(1H)-one hydrochloride], 17 nM; to `Cn1c2c(c3ccc(-n4ccc(OCc5ccc(Cl)cn5)cc4=O)cc31)CCNCC2` [Example 50, 4-((5-Chloropyridin-2-yl)methoxy)-1-(6-methyl-1,2,3,4,5,6-hexahydroazepino[4,5-b]indol-8-yl)pyridin-2(1H)-one hydrochloride], 7.4 nM.
As to `Cn1c2c(c3ccc(-n4ccc(OCc5ccc(Cl)cc5Cl)cc4=O)cc31)CCNCC2` [Example 51, 4-(2,4-Dichlorobenzyloxy)-1-(6-methyl-1,2,3,4,5,6-hexahydroazepino[4,5-b]indol-8-yl)pyridin-2(1H)-one], the Ki was 24 nM.
In the case of `Cn1c2c(c3ccc(-n4ccc(OCc5ccc(F)cc5F)cc4=O)cc31)CCNCC2` [Example 52, 4-(2,4-Difluorobenzyloxy)-1-(6-methyl-1,2,3,4,5,6-hexahydroazepino[4,5-b]indol-8-yl)pyridin-2(1H)-one hydrochloride], the Ki was determined as 7.8 nM.
To `Cn1c2c(c3ccc(N4CCN(CCc5ccc(Cl)cc5)CC4=O)cc31)CCNCC2` [Example 53, 4-(4-Chlorophenethyl)-1-(6-methyl-1,2,3,4,5,6-hexahydroazepino[4,5-b]indol-8-yl)piperazin-2-one dihydrochloride] belongs 13 nM; to `Cn1c2c(c3ccc(-n4ccc(OCc5ccc(Cl)cc5F)cc4=O)cc31)CCNCC2` [Example 55, 4-(4-Chloro-2-fluorobenzyloxy)-1-(6-methyl-1,2,3,4,5,6-hexahydroazepino[4,5-b]indol-8-yl)pyridin-2(1H)-one hydrochloride], 12 nM; to `Cn1c2c(c3ccc(-n4ccc(OCc5ccc(F)cc5)cc4=O)cc31)CCNCC2` [Example 57, 4-(4-Fluorobenzyloxy)-1-(6-methyl-1,2,3,4,5,6-hexahydroazepino[4,5-b]indol-8-yl)pyridin-2(1H)-one hydrochloride], 7.3 nM.
For `Cn1c2c(c3ccc(-n4ccc(-c5ccc(C(F)(F)F)nc5)nc4=O)cc31)CCNCC2` [Example 58, 1-(6-Methyl-1,2,3,4,5,6-hexahydroazepino[4,5-b]indol-8-yl)-4-(6-(trifluoromethyl)pyridin-3-yl)pyrimidin-2(1H)-one hydrochloride] the value was 163 nM; for `Cn1c2c(c3ccc(N4CCN(CCc5ccccn5)CC4=O)cc31)CNCCC2` [Example 59, 1-(6-Methyl-1,2,3,4,5,6-hexahydroazepino[4,3-b]indol-8-yl)-4-(2-(pyridin-2-yl)ethyl)piperazin-2-one dihydrochloride], 44 nM.
To `Cn1c2c(c3ccc(-n4ncc(OCc5ccc(C(F)(F)F)nc5)cc4=O)cc31)CNCCC2` [Example 60, 2-(6-Methyl-1,2,3,4,5,6-hexahydroazepino[4,3-b]indol-8-yl)-5-((6-(trifluoromethyl)pyridin-3-yl)methoxy)pyridazin-3(2H)-one hydrochloride] belongs 21 nM.
For `Cn1c2c(c3ccc(-n4ccc(OCc5ccc(Cl)cc5Cl)cc4=O)cc31)CNCCC2` [Example 65, 4-(2,4-Dichlorobenzyloxy)-1-(6-methyl-1,2,3,4,5,6-hexahydroazepino[4,3-b]indol-8-yl)pyridin-2(1H)-one hydrochloride], the Ki is 11 nM.
For `CN1CCCc2c(c3ccc(-n4ccc(-c5ccc(C(F)(F)F)nn5)cc4=O)cc3n2C)C1` [Example 69, 1-(2,6-Dimethyl-1,2,3,4,5,6-hexahydroazepino[4,3-b]indol-8-yl)-4-(6-(trifluoromethyl)pyridazin-3-yl)pyridin-2(1H)-one hydrochloride] the value was 12 nM.
For `CN1CCCc2c(c3ccc(-n4ccc(OCc5ccc(F)cn5)cc4=O)cc3n2C)C1` [Example 70, 1-(2,6-Dimethyl-1,2,3,4,5,6-hexahydroazepino[4,3-b]indol-8-yl)-4-((5-fluoropyridin-2-yl)methoxy)pyridin-2(1H)-one hydrochloride] the value was 8.8 nM.
For `CN1CCCc2c(c3ccc(-n4ccc(OCc5ccc(C(F)(F)F)nc5)cc4=O)cc3n2C)C1` [Example 71, 1-(2,6-Dimethyl-1,2,3,4,5,6-hexahydroazepino[4,3-b]indol-8-yl)-4-((6-(trifluoromethyl)pyridin-3-yl)methoxy)pyridin-2(1H)-one hydrochloride] the value was 8.5 nM; for `CCN1CCCc2c(c3ccc(-n4ccc(OCc5ccc(F)cn5)cc4=O)cc3n2C)C1` [Example 73, 1-(2-Ethyl-6-methyl-1,2,3,4,5,6-hexahydroazepino[4,3-b]indol-8-yl)-4-((5-fluoropyridin-2-yl)methoxy)pyridin-2(1H)-one hydrochloride], 9.4 nM.
Regarding `Cn1c2c(c3ccc(-n4ccc(OCc5ccc(F)cc5F)cc4=O)nc31)CCNCC2` [Example 83, 4-(2,4-Difluorobenzyloxy)-1-(10-methyl-5,6,7,8,9,10-hexahydropyrido[3′,2′:4,5]pyrrolo[2,3-d]azepin-2-yl)pyridin-2(1H)-one hydrochloride], the Ki came out at 13 nM.
For `Cn1c2c(c3ccc(-n4ccc(OCc5ccc(Cl)cc5F)cc4=O)nc31)CCNCC2` [Example 84, 4-(4-Chloro-2-fluorobenzyloxy)-1-(10-methyl-5,6,7,8,9,10-hexahydropyrido[3′,2′:4,5]pyrrolo[2,3-d]azepin-2-yl)pyridin-2(1H)-one hydrochloride] the value was 11 nM; for `Cn1c2c(c3ccc(-n4ccc(OCc5ccc(Cl)cn5)cc4=O)nc31)CCNCC2` [Example 85, 4-((5-Chloropyridin-2-yl)methoxy)-1-(10-methyl-5,6,7,8,9,10-hexahydropyrido[3′,2′:4,5]pyrrolo[2,3-d]azepin-2-yl)pyridin-2(1H)-one hydrochloride], 11 nM; for `Cn1c2c(c3ccc(-n4ccc(OCc5ccccc5)cc4=O)nc31)CCN(C1CCC1)CC2` [Example 86, 4-(Benzyloxy)-1-(7-cyclobutyl-10-methyl-5,6,7,8,9,10-hexahydropyrido[3′,2′:4,5]pyrrolo[2,3-d]azepin-2-yl)pyridin-2(1H)-one hydrochloride], 16 nM.

What is called Ki is the dissociation constant of the complex between target and ligand, obtained from inhibition or displacement.

Values taken from US8637501B2, “Azinone-substituted azepino[b]indole and pyrido-pyrrolo-azepine MCH-1 antagonists, methods of making, and use thereof” (Albany Molecular Research, Inc., priority 2009, dated 2014).
